Results taken from PubChem BioAssay AID2060617 (Molecular Pharmacology Branch, DTP, NCI, 2025).

Test system: 485368-065-R4-J2-PDC spheroids with HUVEC/MSC, viability
Test: Anticancer human tumor 485368-065-R4-J2-PDC patient-derived pancreatic carcinoma cell line growth inhibition [CLK]
Conditions: for IC50: curve of first compound; for viability, T/C: stronger effect = lower value
In short: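 Patient-derived tumor cells grown as complex spheroids with HUVEC endothelial cells and mesenchymal stem cells, treated with drug combinations. Concentrations descend in half-log steps from near clinical Cmax, or from 10 microM if Cmax unknown.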

[1] = second compound 0.0316 µM, first compound 0.0316 µM
[2] = second compound 0.0316 µM, first compound 0.1 µM
[3] = second compound 0.0316 µM, first compound 0.316 µM
[4] = second compound 0.0316 µM, first compound 1 µM
[5] = second compound 0.1 µM, first compound 0.0316 µM
[6] = second compound 0.1 µM, first compound 0.1 µM
[7] = second compound 0.1 µM, first compound 0.316 µM
[8] = second compound 0.1 µM, first compound 1 µM
[9] = second compound 0.316 µM, first compound 0.0316 µM
[10] = second compound 0.316 µM, first compound 0.1 µM
[11] = second compound 0.316 µM, first compound 0.316 µM
[12] = second compound 0.316 µM, first compound 1 µM
[13] = second compound 1 µM, first compound 0.0316 µM
[14] = second compound 1 µM, first compound 0.1 µM
[15] = second compound 1 µM, first compound 0.316 µM
[16] = second compound 1 µM, first compound 1 µM
[17] = second compound 3.16 µM, first compound 0.0316 µM
[18] = second compound 3.16 µM, first compound 0.1 µM
[19] = second compound 3.16 µM, first compound 0.316 µM
[20] = second compound 3.16 µM, first compound 1 µM
[21] = second compound 10 µM, first compound 0.0316 µM
[22] = second compound 10 µM, first compound 0.1 µM
[23] = second compound 10 µM, first compound 0.316 µM
[24] = second compound 10 µM, first compound 1 µM
[25] = second compound 0.0316 µM, first compound 3.16 µM
[26] = second compound 0.0316 µM, first compound 10 µM
[27] = second compound 0.1 µM, first compound 3.16 µM
[28] = second compound 0.1 µM, first compound 10 µM
[29] = second compound 0.316 µM, first compound 3.16 µM
[30] = second compound 0.316 µM, first compound 10 µM
[31] = second compound 1 µM, first compound 3.16 µM
[32] = second compound 1 µM, first compound 10 µM
[33] = second compound 3.16 µM, first compound 3.16 µM
[34] = second compound 3.16 µM, first compound 10 µM
[35] = second compound 10 µM, first compound 3.16 µM
[36] = second compound 10 µM, first compound 10 µM
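Note: spheroids exposed to compounds for seven days.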
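Throughout, for viability, T/C: 100% = DMSO vehicle control wells.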

COc1c(OCCCN2CCOCC2)ccc2c3n(c(=NC(=O)c4cnc(N)nc4)nc12)CCN3 + CNC(=O)c1ccc(Nc2nc(OC3CCCC3)c3c(-c4ccc5nc(C)oc5c4)c[nH]c3n2)c(OC)c1
IC50 (second compound 0.0316 µM): 220 nM
IC50 (second compound 0.1 µM): 243 nM
IC50 (second compound 0.316 µM): 136 nM
IC50 (second compound 1 µM): 54.9 nM
IC50 (second compound 3.16 µM): 42.6 nM
IC50 (second compound 10 µM): 35.3 nM
viability, T/C (second compound 0.0316 µM, first compound 0.00316 µM): 81.5%
viability, T/C (second compound 0.0316 µM, first compound 0.01 µM): 124%
viability, T/C [1]: 111%
viability, T/C [2]: 66.1%
viability, T/C [3]: 44.5%
viability, T/C [4]: 40.5%
viability, T/C (second compound 0.1 µM, first compound 0.00316 µM): 103%
viability, T/C (second compound 0.1 µM, first compound 0.01 µM): 121%
viability, T/C [5]: 110%
viability, T/C [6]: 68.4%
viability, T/C [7]: 48%
viability, T/C [8]: 39.9%
viability, T/C (second compound 0.316 µM, first compound 0.00316 µM): 72.4%
viability, T/C (second compound 0.316 µM, first compound 0.01 µM): 80.8%
viability, T/C [9]: 72.6%
viability, T/C [10]: 54.9%
viability, T/C [11]: 36.2%
viability, T/C [12]: 37.3%
viability, T/C (second compound 1 µM, first compound 0.00316 µM): 76.7%
viability, T/C (second compound 1 µM, first compound 0.01 µM): 65.4%
viability, T/C [13]: 59.6%
viability, T/C [14]: 42.1%
viability, T/C [15]: 31.1%
viability, T/C [16]: 30.5%
viability, T/C (second compound 3.16 µM, first compound 0.00316 µM): 71.2%
viability, T/C (second compound 3.16 µM, first compound 0.01 µM): 61.2%
viability, T/C [17]: 56.2%
viability, T/C [18]: 38.5%
viability, T/C [19]: 28.4%
viability, T/C [20]: 28.5%
viability, T/C (second compound 10 µM, first compound 0.00316 µM): 66.4%
viability, T/C (second compound 10 µM, first compound 0.01 µM): 65.3%
viability, T/C [21]: 49.7%
viability, T/C [22]: 38.8%
viability, T/C [23]: 27.1%
viability, T/C [24]: 30.1%

COc1ccc([C@@H](O)c2cc(-c3ncnc4cc(N5CCOCC5)ccc34)c(F)cc2Cl)nn1 + CN1CCN(c2cc(C(=O)Nc3cc4cc(-c5cnn(C)c5)ccc4cn3)ccn2)CC1
IC50 (second compound 0.0316 µM): > 10000 nM
IC50 (second compound 0.1 µM): > 10000 nM
IC50 (second compound 0.316 µM): 8180 nM
IC50 (second compound 1 µM): < 31.6 nM
IC50 (second compound 3.16 µM): < 31.6 nM
IC50 (second compound 10 µM): < 31.6 nM
viability, T/C [1]: 106%
viability, T/C [2]: 109%
viability, T/C [3]: 111%
viability, T/C [4]: 119%
viability, T/C [25]: 109%
viability, T/C [26]: 82%
viability, T/C [5]: 114%
viability, T/C [6]: 113%
viability, T/C [7]: 113%
viability, T/C [8]: 115%
viability, T/C [27]: 100%
viability, T/C [28]: 74.6%
viability, T/C [9]: 79%
viability, T/C [10]: 81.2%
viability, T/C [11]: 69.7%
viability, T/C [12]: 65%
viability, T/C [29]: 61.3%
viability, T/C [30]: 47.2%
viability, T/C [13]: 0.59%
viability, T/C [14]: 0.61%
viability, T/C [15]: 0.67%
viability, T/C [16]: 0.97%
viability, T/C [31]: 0.95%
viability, T/C [32]: 1.67%
viability, T/C [17]: 1.12%
viability, T/C [18]: 1.03%
viability, T/C [19]: 0.98%
viability, T/C [20]: 1.02%
viability, T/C [33]: 1.01%
viability, T/C [34]: 1.54%
viability, T/C [21]: 1.19%
viability, T/C [22]: 1.26%
viability, T/C [23]: 1.23%
viability, T/C [24]: 1.29%
viability, T/C [35]: 2.19%
viability, T/C [36]: 3.09%

CC(CO)NC(=O)c1cc(-c2ccc(Cl)cc2)nn(-c2cnn(C)c2)c1=O (stereo unspecified) + CNC(=O)c1ccc(Nc2nc(OC3CCCC3)c3c(-c4ccc5nc(C)oc5c4)c[nH]c3n2)c(OC)c1
IC50 (second compound 0.0316 µM): > 10000 nM
IC50 (second compound 0.1 µM): > 10000 nM
IC50 (second compound 0.316 µM): > 10000 nM
IC50 (second compound 1 µM): > 10000 nM
IC50 (second compound 3.16 µM): > 10000 nM
IC50 (second compound 10 µM): > 10000 nM
viability, T/C [1]: 87.9%
viability, T/C [2]: 94.3%
viability, T/C [3]: 87.9%
viability, T/C [4]: 101%
viability, T/C [25]: 89.8%
viability, T/C [26]: 103%
viability, T/C [5]: 90.5%
viability, T/C [6]: 97%
viability, T/C [7]: 93.6%
viability, T/C [8]: 103%
viability, T/C [27]: 92.8%
viability, T/C [28]: 97.8%
viability, T/C [9]: 82.8%
viability, T/C [10]: 84.2%
viability, T/C [11]: 82.5%
viability, T/C [12]: 75.4%
viability, T/C [29]: 86.4%
viability, T/C [30]: 85.9%
viability, T/C [13]: 83.7%
viability, T/C [14]: 69.9%
viability, T/C [15]: 73.3%
viability, T/C [16]: 73.9%
viability, T/C [31]: 70.2%
viability, T/C [32]: 77.1%
viability, T/C [17]: 72.3%
viability, T/C [18]: 67.2%
viability, T/C [19]: 71%
viability, T/C [20]: 70.6%
viability, T/C [33]: 69.3%
viability, T/C [34]: 76%
viability, T/C [21]: 64.9%
viability, T/C [22]: 71.2%
viability, T/C [23]: 69.6%
viability, T/C [24]: 66.6%
viability, T/C [35]: 72.8%
viability, T/C [36]: 70.7%
